# System: Alzheimer's disease patients
# Assay: Clinical trial in Alzheimer's disease patients, analysis of psychiatric disorder events (MedDRA adverse events)
# Format: in vivo, human
# Procedure: A clinical trial with (R)-2-(2-fluoro-4-biphenylyl)propionic acid (USAN name of tarneflurbil) was conducted according to the method disclosed in U.S. patent application Ser. No. 10/889,971, filed Jul. 12, 2004, (US publication no. 20050042284) which is expressly incorporated herein by reference in its entirety. In this clinical trial, Alzheimer's disease patients were treated with placebo, 400 mg tarenflurbil twice daily, or 800 mg tarenflurbil twice daily for one year. Analysis of the psychiatric disorder events yielded the following results.
# [1] = 400 mg BID for one year, N = 40
# [2] = 800 mg BID for one year, N = 50
structure (smiles),measurement,setting,value
"C[C@@H](C(=O)O)c1ccc(-c2ccccc2)c(F)c1 [tarenflurbil, (R)-2-(2-fluoro-4-biphenylyl)propionic acid]","Abnormal behaviour, number",[1],0
same,"Abnormal dreams, number",[1],0
same,"Aggression, number",[1],0
same,"Agitation, number",[1],2
same,"Agitation, percent of N",[1],(5%)
same,"Anger, number",[1],1
same,"Anger, percent of N",[1],(2.5%)
same,"Anxiety, number",[1],2
same,"Anxiety, percent of N",[1],(5%)
same,"Apathy, number",[1],0
same,"Confusional state, number",[1],4
same,"Confusional state, percent of N",[1],(10%)
same,"Delusion, number",[1],1
same,"Delusion, percent of N",[1],(2.5%)
same,"Depression, number",[1],1
same,"Depression, percent of N",[1],(2.5%)
same,"Hallucination, number",[1],0
same,"Hallucination, visual, number",[1],1
same,"Hallucination, visual, percent of N",[1],(2.5%)
same,"Insomnia, number",[1],0
same,"Libi do increased, number",[1],1
same,"Libi do increased, percent of N",[1],(2.5%)
same,"Mood altered, number",[1],0
same,"Mood swings, number",[1],1
same,"Mood swings, percent of N",[1],(2.5%)
same,"Nightmare, number",[1],0
same,Number of Patients With at Least One Adverse Event (Psychiatric Disorder),[1],12
same,"Paranoia, number",[1],1
same,"Paranoia, percent of N",[1],(2.5%)
same,"Patients With at Least One Adverse Event (Psychiatric Disorder), percent of N",[1],(30%)
same,"Psychotic disorder, number",[1],1
same,"Psychotic disorder, percent of N",[1],(2.5%)
same,"Sleep disorder, number",[1],1
same,"Sleep disorder, percent of N",[1],(2.5%)
same,"Total Number of Adverse Events (Psychiatric Disorders, MedDRA)",[1],17
same,"Abnormal behaviour, number",[2],0
same,"Abnormal dreams, number",[2],0
same,"Aggression, number",[2],0
same,"Agitation, number",[2],1
same,"Agitation, percent of N",[2],(2%)
same,"Anger, number",[2],0
same,"Anxiety, number",[2],2
same,"Anxiety, percent of N",[2],(4%)
same,"Apathy, number",[2],0
same,"Confusional state, number",[2],0
same,"Delusion, number",[2],0
same,"Depression, number",[2],4
same,"Depression, percent of N",[2],(8%)
same,"Hallucination, number",[2],0
same,"Hallucination, visual, number",[2],0
same,"Insomnia, number",[2],1
same,"Insomnia, percent of N",[2],(2%)
same,"Libi do increased, number",[2],0
same,"Mood altered, number",[2],1
same,"Mood altered, percent of N",[2],(2%)
same,"Mood swings, number",[2],0
same,"Nightmare, number",[2],1
same,"Nightmare, percent of N",[2],(2%)
same,Number of Patients With at Least One Adverse Event (Psychiatric Disorder),[2],7
same,"Paranoia, number",[2],0
same,"Patients With at Least One Adverse Event (Psychiatric Disorder), percent of N",[2],(14%)
same,"Psychotic disorder, number",[2],0
same,"Sleep disorder, number",[2],0
same,"Total Number of Adverse Events (Psychiatric Disorders, MedDRA)",[2],10
same,number of psychiatric events (incidence),"treatment group, statistical analysis, p=0.02",reduce the incidence of psychiatric events
same,time to progression to psychiatric events (onset),"treatment group, statistical analysis, p=0011",delay the onset of

# Source: patent publication US20080033045A1, “TREATMENT OF PSYCHIATRIC DISORDERS” (Myriad Genetics, Incorporated, priority 2006, published 2008)
